# In ChEMBL document CHEMBL3885881, “DrugMatrix”:
# Species: Rattus norvegicus
# Assay: DrugMatrix - Regimen: Daily Repeat
# Type: toxicity, organism-based, Sprague-Dawley
# Design: regimen Daily Repeat, gender Male, age 6-8 weeks
# Conditions: in vivo, po, route oral GAVAGE, vehicle .5 % CMC; for ABSOLUTE BASOPHIL / ABSOLUTE EOSINOPHIL / ABSOLUTE LYMPHOCYTE / ABSOLUTE MONOCYTE / ABSOLUTE SEGMENTED NEUTROPHIL / BASOPHIL / EOSINOPHIL / ERYTHROCYTE COUNT / HEMATOCRIT / HEMOGLOBIN / LEUKOCYTE COUNT / LYMPHOCYTE / MEAN CORPUSCULAR HEMOGLOBIN / MEAN CORPUSCULAR HEMOGLOBIN CONCENTRATION / MEAN CORPUSCULAR VOLUME / MONOCYTE / NEUTROPHIL / NUCLEATED RED BLOOD CELLS / PLATELET COUNT: tissue Blood; for ALANINE AMINOTRANSFERASE / ALBUMIN / ALKALINE PHOSPHATASE / ASPARTATE AMINOTRANSFERASE / BLOOD UREA NITROGEN / CARBON DIOXIDE / CHLORIDE / CHOLESTEROL / CREATINE PHOSPHOKINASE / CREATININE / GLUCOSE / LACTATE DEHYDROGENASE / LIPASE / PHOSPHORUS / POTASSIUM / SODIUM / TOTAL BILIRUBIN / TOTAL PROTEIN / URIC ACID: tissue Plasma
# [1] = 100 mg/kg, 120 h, dose level Low, time 5 day
# [2] = 1503 mg/kg, 72 h, dose level High, time 3 day
# [3] = 1503 mg/kg, 120 h, dose level High, time 5 day
smiles,measurement,setting,value
Cl.NC[C@H]1CC[C@H](C(=O)Oc2ccc(CCC(=O)O)cc2)CC1 [CETRAXATE HYDROCHLORIDE],ABSOLUTE BASOPHIL,[1],0 CELLS/uL
same,ABSOLUTE EOSINOPHIL,[1],157.33 CELLS/uL
same,ABSOLUTE LYMPHOCYTE,[1],16804.67 CELLS/uL
same,ABSOLUTE MONOCYTE,[1],401.67 CELLS/uL
same,ABSOLUTE SEGMENTED NEUTROPHIL,[1],1803 CELLS/uL
same,BASOPHIL,[1],0%
same,EOSINOPHIL,[1],0.67%
same,ERYTHROCYTE COUNT,[1],5.83 x10E6/uL
same,HEMATOCRIT,[1],37.17%
same,HEMOGLOBIN,[1],13.9 G/DL
same,LEUKOCYTE COUNT,[1],19.17 x10E3/uL
same,LYMPHOCYTE,[1],88.33%
same,MEAN CORPUSCULAR HEMOGLOBIN,[1],23.87 pg
same,MEAN CORPUSCULAR HEMOGLOBIN CONCENTRATION,[1],37.4 G/DL
same,MEAN CORPUSCULAR VOLUME,[1],63.73 fL
same,MONOCYTE,[1],2%
same,NEUTROPHIL,[1],9%
same,NUCLEATED RED BLOOD CELLS,[1],0 /100WBC
same,PLATELET COUNT,[1],1287.67 x10E3/uL
same,ALANINE AMINOTRANSFERASE,[1],53.67 u/L
same,ALBUMIN,[1],4.23 G/DL
same,ALKALINE PHOSPHATASE,[1],376.33 u/L
same,ASPARTATE AMINOTRANSFERASE,[1],93.67 u/L
same,BLOOD UREA NITROGEN,[1],19.33 mg/dL
same,CARBON DIOXIDE,[1],27 mmol/L
same,CHLORIDE,[1],104.67 MEQ/L
same,CHOLESTEROL,[1],78.67 mg/dL
same,CREATINE PHOSPHOKINASE,[1],449.67 u/L
same,CREATININE,[1],0.23 mg/dL
same,GLUCOSE,[1],160.33 mg/dL
same,LACTATE DEHYDROGENASE,[1],370.33 u/L
same,LIPASE,[1],9.67 u/L
same,PHOSPHORUS,[1],13.2 mg/dL
same,POTASSIUM,[1],6.82 MEQ/L
same,SODIUM,[1],143.93 MEQ/L
same,TOTAL BILIRUBIN,[1],0.17 mg/dL
same,TOTAL PROTEIN,[1],5.97 G/DL
same,URIC ACID,[1],2.07 mg/dL
same,ABSOLUTE BASOPHIL,[2],0 CELLS/uL
same,ABSOLUTE EOSINOPHIL,[2],121 CELLS/uL
same,ABSOLUTE LYMPHOCYTE,[2],13133.33 CELLS/uL
same,ABSOLUTE MONOCYTE,[2],333 CELLS/uL
same,ABSOLUTE SEGMENTED NEUTROPHIL,[2],979.33 CELLS/uL
same,BASOPHIL,[2],0%
same,EOSINOPHIL,[2],1%
same,ERYTHROCYTE COUNT,[2],5.73 x10E6/uL
same,HEMATOCRIT,[2],36.13%
same,HEMOGLOBIN,[2],13.17 G/DL
same,LEUKOCYTE COUNT,[2],14.57 x10E3/uL
same,LYMPHOCYTE,[2],90%
same,MEAN CORPUSCULAR HEMOGLOBIN,[2],23.03 pg
same,MEAN CORPUSCULAR HEMOGLOBIN CONCENTRATION,[2],36.43 G/DL
same,MEAN CORPUSCULAR VOLUME,[2],63.13 fL
same,MONOCYTE,[2],2.33%
same,NEUTROPHIL,[2],6.67%
same,NUCLEATED RED BLOOD CELLS,[2],0.33 /100WBC
same,PLATELET COUNT,[2],1198.67 x10E3/uL
same,ALANINE AMINOTRANSFERASE,[2],68 u/L
same,ALBUMIN,[2],4.1 G/DL
same,ALKALINE PHOSPHATASE,[2],375.67 u/L
same,ASPARTATE AMINOTRANSFERASE,[2],167.67 u/L
same,BLOOD UREA NITROGEN,[2],17.67 mg/dL
same,CARBON DIOXIDE,[2],25 mmol/L
same,CHLORIDE,[2],101.33 MEQ/L
same,CHOLESTEROL,[2],63.67 mg/dL
same,CREATINE PHOSPHOKINASE,[2],4593 u/L
same,CREATININE,[2],0.28 mg/dL
same,GLUCOSE,[2],200 mg/dL
same,LACTATE DEHYDROGENASE,[2],387 u/L
same,LIPASE,[2],10.33 u/L
same,PHOSPHORUS,[2],12.87 mg/dL
same,POTASSIUM,[2],6.87 MEQ/L
same,SODIUM,[2],143.37 MEQ/L
same,TOTAL BILIRUBIN,[2],0.3 mg/dL
same,TOTAL PROTEIN,[2],5.53 G/DL
same,URIC ACID,[2],2.37 mg/dL
same,ABSOLUTE BASOPHIL,[3],0 CELLS/uL
same,ABSOLUTE EOSINOPHIL,[3],225.33 CELLS/uL
same,ABSOLUTE LYMPHOCYTE,[3],13517.67 CELLS/uL
same,ABSOLUTE MONOCYTE,[3],404.33 CELLS/uL
same,ABSOLUTE SEGMENTED NEUTROPHIL,[3],1186 CELLS/uL
same,BASOPHIL,[3],0%
same,EOSINOPHIL,[3],1.33%
same,ERYTHROCYTE COUNT,[3],6.38 x10E6/uL
same,HEMATOCRIT,[3],39.27%
same,HEMOGLOBIN,[3],14.57 G/DL
same,LEUKOCYTE COUNT,[3],15.33 x10E3/uL
same,LYMPHOCYTE,[3],88.33%
same,MEAN CORPUSCULAR HEMOGLOBIN,[3],22.83 pg
same,MEAN CORPUSCULAR HEMOGLOBIN CONCENTRATION,[3],37.13 G/DL
same,MEAN CORPUSCULAR VOLUME,[3],61.57 fL
same,MONOCYTE,[3],2.67%
same,NEUTROPHIL,[3],7.67%
same,NUCLEATED RED BLOOD CELLS,[3],0 /100WBC
same,PLATELET COUNT,[3],1170.67 x10E3/uL
same,ALANINE AMINOTRANSFERASE,[3],59 u/L
same,ALBUMIN,[3],4.47 G/DL
same,ALKALINE PHOSPHATASE,[3],424.33 u/L
same,ASPARTATE AMINOTRANSFERASE,[3],93.33 u/L
same,BLOOD UREA NITROGEN,[3],17 mg/dL
same,CARBON DIOXIDE,[3],26.67 mmol/L
same,CHLORIDE,[3],105.67 MEQ/L
same,CHOLESTEROL,[3],58 mg/dL
same,CREATINE PHOSPHOKINASE,[3],497 u/L
same,CREATININE,[3],0.24 mg/dL
same,GLUCOSE,[3],175.33 mg/dL
same,LACTATE DEHYDROGENASE,[3],205.33 u/L
same,LIPASE,[3],9 u/L
same,PHOSPHORUS,[3],12.87 mg/dL
same,POTASSIUM,[3],6.66 MEQ/L
same,SODIUM,[3],144.8 MEQ/L
same,TOTAL BILIRUBIN,[3],0.2 mg/dL
same,TOTAL PROTEIN,[3],6.27 G/DL
same,URIC ACID,[3],1.93 mg/dL
